# Tests used:
# [1] = system: Pseudomonas aeruginosa; assay: Antibacterial efficacy against multi drug resistant Pseudomonas aeruginosa T-2022-D2-048 infected in cyclophosphamide-induced neutropenic thigh infection ICR mouse model assessed as decrease in bacterial burden administered as iv dose measured after 24 hrs; assay type: functional, organism-based; conditions: dose 3-12 mg/kg
# [2] = Clearance in Sprague-Dawley rat at 10 mg/kg, iv measured upto 24 hrs LC-MS/MS analysis; assay type: ADME, organism-based; conditions: in vivo
# [3] = Volume of distribution at steady state in Sprague-Dawley rat at 10 mg/kg, iv measured upto 24 hrs LC-MS/MS analysis; assay type: ADME, organism-based; conditions: in vivo, read-out: Vdss
# [4] = MRT in Sprague-Dawley rat at 10 mg/kg, iv measured upto 24 hrs LC-MS/MS analysis; assay type: ADME, organism-based; conditions: in vivo
# [5] = AUC (0 to t) in Sprague-Dawley rat at 10 mg/kg, iv measured upto 24 hrs LC-MS/MS analysis; assay type: ADME, organism-based; conditions: Sprague-Dawley, in vivo
# [6] = Half life in Sprague-Dawley rat at 10 mg/kg, iv measured upto 24 hrs LC-MS/MS analysis; assay type: ADME, organism-based; conditions: in vivo
# [7] = system: Acinetobacter baumannii; assay: Antibacterial activity against Acinetobacter baumannii 17-8 assessed as inhibition of bacterial growth measured after 18 to 20 hrs by broth microdilution method; assay type: functional; conditions: time 18-20 hrs
# [8] = system: Pseudomonas aeruginosa; assay: Antibacterial activity against Pseudomonas aeruginosa 17-1 assessed as inhibition of bacterial growth measured after 18 to 20 hrs by broth microdilution method; assay type: functional; conditions: time 18-20 hrs
# [9] = system: Jurkat; assay: Cytotoxicity against human Jurkat cells assessed as inhibition of cell growth incubated for 24 hrs by CCK8 method; assay type: functional, cell-based
# [10] = system: HepG2; assay: Cytotoxicity against human HepG2 cells assessed as inhibition of cell growth at 100 uM incubated for 24 hrs by CCK8 method relative to control; assay type: functional
# [11] = system: Jurkat; assay: Cytotoxicity against human Jurkat cells assessed as inhibition of cell growth at 100 uM incubated for 24 hrs by CCK8 method relative to control; assay type: functional
# [12] = system: Pseudomonas aeruginosa; assay: Antibacterial activity against Pseudomonas aeruginosa 19-5 assessed as inhibition of bacterial growth measured after 18 to 20 hrs by broth microdilution method; assay type: functional; conditions: time 18-20 hrs
# [13] = Cytotoxicity against HEK293T cells assessed as inhibition of cell growth at 100 uM incubated for 24 hrs by CCK8 method relative to control; assay type: toxicity, cell-based, HEK-293T; conditions: human
# [14] = system: Klebsiella pneumoniae; assay: Antibacterial activity against Klebsiella pneumoniae 15-4 assessed as inhibition of bacterial growth measured after 18 to 20 hrs by broth microdilution method; assay type: functional; conditions: time 18-20 hrs
# [15] = system: Escherichia coli; assay: Antibacterial activity against Escherichia coli 14-4 assessed as inhibition of bacterial growth measured after 18 to 20 hrs by broth microdilution method; assay type: functional; conditions: time 18-20 hrs
# [16] = system: Escherichia coli; assay: Antibacterial activity against Escherichia coli 14-2 assessed as inhibition of bacterial growth measured after 18 to 20 hrs by broth microdilution method; assay type: functional; conditions: time 18-20 hrs
# [17] = system: Klebsiella pneumoniae; assay: Antibacterial activity against Klebsiella pneumoniae 15-1 assessed as inhibition of bacterial growth measured after 18 to 20 hrs by broth microdilution method; assay type: functional; conditions: time 18-20 hrs
# [18] = system: Escherichia coli; assay: Antibacterial activity against Escherichia coli ATCC 35218 assessed as inhibition of bacterial growth measured after 18 to 20 hrs by broth microdilution method; assay type: functional; conditions: time 18-20 hrs
# [19] = system: HepG2; assay: Cytotoxicity against human HepG2 cells assessed as inhibition of cell growth incubated for 24 hrs by CCK8 method; assay type: functional, cell-based; conditions: HepG2, 24 h
# [20] = system: Acinetobacter baumannii; assay: Antibacterial activity against Acinetobacter baumannii 17-2 assessed as inhibition of bacterial growth measured after 18 to 20 hrs by broth microdilution method; assay type: functional; conditions: time 18-20 hrs
# [21] = system: Klebsiella pneumoniae; assay: Antibacterial activity against Klebsiella pneumoniae 15-5 assessed as inhibition of bacterial growth measured after 18 to 20 hrs by broth microdilution method; assay type: functional; conditions: time 18-20 hrs
# [22] = Cytotoxicity against HEK293T cells assessed as inhibition of cell growth incubated for 24 hrs by CCK8 method; assay type: toxicity, cell-based, HEK-293T; conditions: human
SMILES,clearance [2],Vd [3],MRT [4],AUC(0-t) at 24 h [5],MIC [7],MIC [8],IC50 [9],inhibition at 100 µM [10],inhibition at 100 µM [11],MIC [12],"inhibition at 24 h, 100 µM [13]",MIC [14],MIC [15],MIC [16],MIC [17],MIC [18],IC50 [19],MIC [20],MIC [21],IC50 at 24 h [22],further results
Cc1nc(-c2ccc(CSSC(C)(C)C)cc2)ncc1C(=O)N[C@@H](CCN)C(=O)N(C)[C@@H]1C(=O)N[C@@H](C)C(=O)N[C@H](C(=O)NCC#N)Cc2ccc(OCCN)c(c2)-c2cc1ccc2OCCN,,,,,,,,,,,,,,,,,,,,,Activity [1]: Dose-Dependent Effect
Cc1nc(-c2ccc(SSC(C)(C)C)cc2)ncc1C(=O)N[C@@H](CCN)C(=O)N(C)[C@@H]1C(=O)N[C@@H](C)C(=O)N[C@H](C(=O)NCC#N)Cc2ccc(OCCN)c(c2)-c2cc1ccc2OCCN,0.954 mL/min/kg,0.252 L/kg,4.4 h,170000 ng·h/mL,,,,,,,,,,,,,,,,,half-life [6]: 2.8 h
CCCCSSCc1ccc(-c2ncc(C(=O)N[C@@H](CCN)C(=O)N(C)[C@@H]3C(=O)N[C@@H](C)C(=O)N[C@H](C(=O)NCC#N)Cc4ccc(OCCN)c(c4)-c4cc3ccc4OCCN)c(C)n2)cc1.O=C(O)C(F)(F)F.O=C(O)C(F)(F)F.O=C(O)C(F)(F)F.O=C(O)C(F)(F)F,,,,,0.125 µg/mL,8 µg/mL,> 100 µM,-3.33%,50.6%,8 µg/mL,41%,≤ 0.03 µg/mL,≤ 0.03 µg/mL,≤ 0.03 µg/mL,≤ 0.03 µg/mL,≤ 0.03 µg/mL,> 100 µM,0.5 µg/mL,≤ 0.03 µg/mL,> 100 µM,
CSSC(C)(C)c1ccc(-c2ncc(C(=O)N[C@@H](CCN)C(=O)N(C)[C@@H]3C(=O)N[C@@H](C)C(=O)N[C@H](C(=O)NCC#N)Cc4ccc(OCCN)c(c4)-c4cc3ccc4OCCN)c(C)n2)cc1.O=C(O)C(F)(F)F.O=C(O)C(F)(F)F.O=C(O)C(F)(F)F.O=C(O)C(F)(F)F,,,,,0.25 µg/mL,8 µg/mL,> 100 µM,-12.6%,39.1%,8 µg/mL,48.1%,≤ 0.03 µg/mL,≤ 0.03 µg/mL,≤ 0.03 µg/mL,≤ 0.03 µg/mL,≤ 0.03 µg/mL,> 100 µM,1 µg/mL,≤ 0.03 µg/mL,> 100 µM,
CCCSSCc1ccc(-c2ncc(C(=O)N[C@@H](CCN)C(=O)N(C)[C@@H]3C(=O)N[C@@H](C)C(=O)N[C@H](C(=O)NCC#N)Cc4ccc(OCCN)c(c4)-c4cc3ccc4OCCN)c(C)n2)cc1,10.8 mL/min/kg,0.285 L/kg,0.44 h,15300 ng·h/mL,,,,,,,,,,,,,,,,,half-life [6]: 0.37 h
Cc1nc(-c2ccc(CSSC(C)(C)C)cc2)ncc1C(=O)N[C@@H](CCN)C(=O)N(C)[C@@H]1C(=O)N[C@@H](C)C(=O)N[C@H](C(=O)O)Cc2ccc(OCCN)c(c2)-c2cc1ccc2OCCN.O=C(O)C(F)(F)F.O=C(O)C(F)(F)F.O=C(O)C(F)(F)F.O=C(O)C(F)(F)F,,,,,0.5 µg/mL,4 µg/mL,> 100 µM,-0.02%,27.7%,32 µg/mL,36.6%,≤ 0.03 µg/mL,≤ 0.03 µg/mL,≤ 0.03 µg/mL,≤ 0.03 µg/mL,≤ 0.03 µg/mL,> 100 µM,0.25 µg/mL,≤ 0.03 µg/mL,> 100 µM,

# Source: ChEMBL document CHEMBL5518248, “Design, Synthesis, and Biological Evaluation of Novel Arylomycins against Multidrug-Resistant Gram-Negative Bacteria” (J Med Chem, 2024)
